{"source": "paper PMC5218480", "about": "(PLoS ONE, 2017)", "test_system": "MV-4-11 cells", "assay": "Gene expression microarray analysis (Affymetrix PrimeView) and GSEA", "assay_type": "cell-based, human", "parameters": "RFU PODN (11730768_x_at) / Fold change /veh PODN (11730768_x_at) / RFU LINC00158 (11744669_a_at) / Fold change /veh LINC00158 (11744669_a_at) / RFU DUSP10 (11751237_a_at) / Fold change /veh DUSP10 (11751237_a_at) / RFU ID3 (11757404_x_at) / Fold change /veh ID3 (11757404_x_at) / RFU PLEKHG5 (11737974_s_at) / Fold change /veh PLEKHG5 (11737974_s_at) / RFU LRRC4B (11730491_at) / Fold change /veh LRRC4B (11730491_at) / RFU GIMAP4 (11747438_a_at) / Fold change /veh GIMAP4 (11747438_a_at) / RFU KRT8 (11758183_x_at) / Fold change /veh KRT8 (11758183_x_at) / RFU CNN1 (11734310_a_at) / Fold change /veh CNN1 (11734310_a_at) / RFU VPS37D (11726825_at) / Fold change /veh VPS37D (11726825_at) / RFU C10orf10 (11716522_x_at) / Fold change /veh C10orf10 (11716522_x_at) / RFU KIR2DL2 /// KIR2DL4 /// KIR2DL5A /// KIR2DL5B /// KIR2DS1 /// KIR2DS2 /// KIR2DS3 /// KIR2DS4 /// KIR3DL3 /// KIR3DL3 /// KIR3DS1 (11738374_at) / Fold change /veh KIR2DL2 /// KIR2DL4 /// KIR2DL5A /// KIR2DL5B /// KIR2DS1 /// KIR2DS2 /// KIR2DS3 /// KIR2DS4 /// KIR3DL3 /// KIR3DL3 /// KIR3DS1 (11738374_at) / RFU C1QL1 (11718748_at) / Fold change /veh C1QL1 (11718748_at) / RFU TMPRSS4 (11747572_a_at) / Fold change /veh TMPRSS4 (11747572_a_at) / RFU HAMP (11756126_x_at) / Fold change /veh HAMP (11756126_x_at) / RFU RNFT2 (11725882_a_at) / Fold change /veh RNFT2 (11725882_a_at) / RFU NR4A2 (11747474_a_at) / Fold change /veh NR4A2 (11747474_a_at) / RFU ABCC12 (11746883_a_at) / Fold change /veh ABCC12 (11746883_a_at) / RFU TMEM136 (11760407_x_at) / Fold change /veh TMEM136 (11760407_x_at) / RFU CLDN22 /// WWC2 (11732394_at) / Fold change /veh CLDN22 /// WWC2 (11732394_at) / RFU HLA-DPB1 (11760878_x_at) / Fold change /veh HLA-DPB1 (11760878_x_at) / RFU SPINT1 (11716480_a_at) / Fold change /veh SPINT1 (11716480_a_at) / RFU GAP43 (11754022_s_at) / Fold change /veh GAP43 (11754022_s_at) / RFU A4GNT (11735810_at) / Fold change /veh A4GNT (11735810_at) / RFU PRB3 (11715151_x_at) / Fold change /veh PRB3 (11715151_x_at) / RFU TUBB4B (11761932_at) / Fold change /veh TUBB4B (11761932_at) / RFU CAPN14 (11732068_a_at) / Fold change /veh CAPN14 (11732068_a_at) / RFU TMCC2 (11721928_a_at) / Fold change /veh TMCC2 (11721928_a_at) / RFU IRGQ (11745062_a_at) / Fold change /veh IRGQ (11745062_a_at) / RFU FAM174B (11720279_a_at) / Fold change /veh FAM174B (11720279_a_at) / RFU TMPRSS4 (11748680_a_at) / Fold change /veh TMPRSS4 (11748680_a_at) / RFU FAM212B (11763350_a_at) / Fold change /veh FAM212B (11763350_a_at) / RFU PLEKHG5 (11743358_a_at) / Fold change /veh PLEKHG5 (11743358_a_at) / RFU ZSCAN30 (11745921_a_at) / Fold change /veh ZSCAN30 (11745921_a_at) / RFU CMKLR1 (11741424_a_at) / Fold change /veh CMKLR1 (11741424_a_at) / RFU LOC101060620 /// MAPK8IP1 (11723275_at) / Fold change /veh LOC101060620 /// MAPK8IP1 (11723275_at) / RFU SPTSSB (11747773_x_at) / Fold change /veh SPTSSB (11747773_x_at) / RFU PRSS12 (11739890_at) / Fold change /veh PRSS12 (11739890_at) / RFU BIN1 (11741810_x_at) / Fold change /veh BIN1 (11741810_x_at) / RFU WNT11 (11732464_a_at) / Fold change /veh WNT11 (11732464_a_at) / RFU C10orf10 (11716521_a_at) / Fold change /veh C10orf10 (11716521_a_at) / RFU C5orf56 (11738089_at) / Fold change /veh C5orf56 (11738089_at) / RFU CYB561 (11721691_x_at) / Fold change /veh CYB561 (11721691_x_at) / RFU ANKRD19P (11752326_a_at) / Fold change /veh ANKRD19P (11752326_a_at) / RFU OR2T12 /// OR2T33 /// OR2T8 (11738714_s_at) / Fold change /veh OR2T12 /// OR2T33 /// OR2T8 (11738714_s_at) / RFU VCAN (11748164_a_at) / Fold change /veh VCAN (11748164_a_at) / RFU JSRP1 (11732532_at) / Fold change /veh JSRP1 (11732532_at) / RFU KRTAP10-11 (11738290_x_at) / Fold change /veh KRTAP10-11 (11738290_x_at) / RFU MYO3A (11730013_a_at) / Fold change /veh MYO3A (11730013_a_at) / RFU EBF3 (11725865_a_at) / Fold change /veh EBF3 (11725865_a_at) / RFU CAMK2N1 (11719241_x_at) / Fold change /veh CAMK2N1 (11719241_x_at) / RFU C5orf56 (11738088_a_at) / Fold change /veh C5orf56 (11738088_a_at) / RFU OLFML3 (11715873_a_at) / Fold change /veh OLFML3 (11715873_a_at) / RFU LOC100653217 /// NTM (11731650_a_at) / Fold change /veh LOC100653217 /// NTM (11731650_a_at) / RFU MAPK11 (11762145_a_at) / Fold change /veh MAPK11 (11762145_a_at) / RFU FIZ1 (11724087_x_at) / Fold change /veh FIZ1 (11724087_x_at) / RFU OASL (11726364_x_at) / Fold change /veh OASL (11726364_x_at) / RFU SOX15 (11748057_x_at) / Fold change /veh SOX15 (11748057_x_at) / RFU CD79A (11719716_a_at) / Fold change /veh CD79A (11719716_a_at) / RFU HIST1H1D (11736915_at) / Fold change /veh HIST1H1D (11736915_at) / RFU CASKIN2 (11723855_a_at) / Fold change /veh CASKIN2 (11723855_a_at) / RFU LOC730098 (11760151_x_at) / Fold change /veh LOC730098 (11760151_x_at) / RFU OR4N2 (11742367_at) / Fold change /veh OR4N2 (11742367_at) / RFU PRRT2 (11749266_a_at) / Fold change /veh PRRT2 (11749266_a_at) / RFU SNX32 (11753110_a_at) / Fold change /veh SNX32 (11753110_a_at) / RFU CDHR5 (11726645_a_at) / Fold change /veh CDHR5 (11726645_a_at) / RFU RCAN1 (11760418_a_at) / Fold change /veh RCAN1 (11760418_a_at) / RFU FAM167A (11723789_a_at) / Fold change /veh FAM167A (11723789_a_at) / RFU FAM26E (11764081_at) / Fold change /veh FAM26E (11764081_at) / RFU ISYNA1 (11749810_s_at) / Fold change /veh ISYNA1 (11749810_s_at) / RFU ACY1 (11761880_at) / Fold change /veh ACY1 (11761880_at) / RFU 11764098_at / Fold change /veh 11764098_at / RFU SAMD14 (11745864_x_at) / Fold change /veh SAMD14 (11745864_x_at) / RFU NPB (11741838_a_at) / Fold change /veh NPB (11741838_a_at) / RFU TMPRSS6 (11731388_a_at) / Fold change /veh TMPRSS6 (11731388_a_at) / RFU KRTAP10-2 (11738614_at) / Fold change /veh KRTAP10-2 (11738614_at) / RFU ARHGAP8 /// PRR5-ARHGAP8 (11727945_x_at) / Fold change /veh ARHGAP8 /// PRR5-ARHGAP8 (11727945_x_at) / RFU KRTAP5-7 /// NADSYN1 (11734609_at) / Fold change /veh KRTAP5-7 /// NADSYN1 (11734609_at) / RFU RASL12 (11751679_a_at) / Fold change /veh RASL12 (11751679_a_at) / RFU CDKN2B (11736163_a_at) / Fold change /veh CDKN2B (11736163_a_at) / RFU PRF1 (11729649_at) / Fold change /veh PRF1 (11729649_at) / RFU, ZNF638 /// ZNF638-IT1 / Fold change vs veh, ZNF638 /// ZNF638-IT1 / RFU, PANK3 / Fold change vs veh, PANK3 / RFU, SH3YL1 / Fold change vs veh, SH3YL1 / RFU, ZEB2 / Fold change vs veh, ZEB2 / RFU, NRIP1 / Fold change vs veh, NRIP1 / RFU, PTTG1IP / Fold change vs veh, PTTG1IP / RFU, CAPN2 / Fold change vs veh, CAPN2 / RFU, MED14 / Fold change vs veh, MED14 / RFU, SNORA58 / Fold change vs veh, SNORA58 / RFU, C1orf63 / Fold change vs veh, C1orf63 / RFU, LRRFIP1 / Fold change vs veh, LRRFIP1 / RFU, NDUFAF7 / Fold change vs veh, NDUFAF7 / RFU, SLC12A2 / Fold change vs veh, SLC12A2 / RFU, IBTK / Fold change vs veh, IBTK / RFU, ESF1 / Fold change vs veh, ESF1 / Fold change vs veh, TMEM50B / RFU, TAOK1 / Fold change vs veh, TAOK1 / RFU, ACBD3 / Fold change vs veh, ACBD3 / RFU, TMA16 / Fold change vs veh, TMA16 / RFU, RWDD3 / Fold change vs veh, RWDD3 / RFU, BCAT1 / Fold change vs veh, BCAT1 / RFU, EDEM3 / Fold change vs veh, EDEM3 / RFU, TMEM33 / Fold change vs veh, TMEM33 / RFU, WDR75 / Fold change vs veh, WDR75 / RFU, AHCTF1 / Fold change vs veh, AHCTF1 / RFU, TFRC / Fold change vs veh, TFRC / RFU, ZDHHC17 / Fold change vs veh, ZDHHC17 / RFU, NOM1 / Fold change vs veh, NOM1 / RFU, ARL8B / Fold change vs veh, ARL8B / RFU, ZBTB11 / Fold change vs veh, ZBTB11 / RFU, TAMM41 / Fold change vs veh, TAMM41 / RFU, KIAA1704 /// LOC100996395 / Fold change vs veh, KIAA1704 /// LOC100996395 / RFU, ING1 / Fold change vs veh, ING1 / RFU, TRMT61B / Fold change vs veh, TRMT61B / RFU, FUBP3 / Fold change vs veh, FUBP3 / RFU, TP53 / Fold change vs veh, TP53 / RFU, TNKS2 / Fold change vs veh, TNKS2 / RFU, ZFP14 / Fold change vs veh, ZFP14 / RFU, ACTR2 / Fold change vs veh, ACTR2 / RFU, PPP3R1 / Fold change vs veh, PPP3R1 / RFU, PIK3R1 / Fold change vs veh, PIK3R1 / RFU, HNRNPA1 / Fold change vs veh, HNRNPA1 / RFU, RNF170 / Fold change vs veh, RNF170 / RFU, ZNF28 / Fold change vs veh, ZNF28 / RFU, RNGTT / Fold change vs veh, RNGTT / RFU, OGT / Fold change vs veh, OGT / RFU, BRD1 / Fold change vs veh, BRD1 / RFU, MARS / Fold change vs veh, MARS / RFU, ZNF655 / Fold change vs veh, ZNF655 / RFU, FAHD1 / Fold change vs veh, FAHD1 / RFU, BDP1 / Fold change vs veh, BDP1 / RFU, LRRCC1 / Fold change vs veh, LRRCC1 / RFU, ARID1A / Fold change vs veh, ARID1A / RFU, ZNF146 / Fold change vs veh, ZNF146 / RFU, ZNF330 / Fold change vs veh, ZNF330 / RFU, GPN3 / Fold change vs veh, GPN3 / RFU, C9orf123 / Fold change vs veh, C9orf123 / RFU, N4BP2L2 / Fold change vs veh, N4BP2L2 / RFU, ARFIP1 / Fold change vs veh, ARFIP1 / RFU, FAM179B / Fold change vs veh, FAM179B / RFU, BCL10 / Fold change vs veh, BCL10 / RFU, UHRF1BP1L / Fold change vs veh, UHRF1BP1L / RFU, BET1 / Fold change vs veh, BET1 / RFU, CNOT2 / Fold change vs veh, CNOT2 / RFU, ZNF268 / Fold change vs veh, ZNF268 / Fold change vs veh, ZNF507 / RFU, DGCR2 / Fold change vs veh, DGCR2 / RFU, WDSUB1 / Fold change vs veh, WDSUB1 / Fold change vs veh, HSP90B1 /// MIR3652 / RFU, ADSS / Fold change vs veh, ADSS / RFU, GK / Fold change vs veh, GK / RFU, ZNF148 / Fold change vs veh, ZNF148 / RFU, TAF9 / Fold change vs veh, TAF9 / RFU, SLC1A5 / Fold change vs veh, SLC1A5 / RFU, SLMO2 / Fold change vs veh, SLMO2 / RFU, ABCC4 / Fold change vs veh, ABCC4 / RFU, LOC101060439 /// RAP1B / Fold change vs veh, LOC101060439 /// RAP1B / RFU, RFX7 / Fold change vs veh, RFX7 / RFU, GTPBP10 / Fold change vs veh, GTPBP10 / RFU, CNEP1R1 / Fold change vs veh, CNEP1R1 / RFU, BIVM-ERCC5 /// ERCC5 / Fold change vs veh, BIVM-ERCC5 /// ERCC5 / RFU, ILF3 / Fold change vs veh, ILF3 / RFU 11762660_at / Fold change /veh 11762660_at / RFU VCAN (11757783_s_at) / Fold change /veh VCAN (11757783_s_at) / RFU DDX43 (11728927_at) / Fold change /veh DDX43 (11728927_at) / RFU KRT8 (11758188_x_at) / Fold change /veh KRT8 (11758188_x_at) / RFU NKD1 (11759106_at) / Fold change /veh NKD1 (11759106_at) / RFU SRD5A1 (11742802_a_at) / Fold change /veh SRD5A1 (11742802_a_at) / RFU TPSAB1 /// TPSB2 (11721975_s_at) / Fold change /veh TPSAB1 /// TPSB2 (11721975_s_at) / RFU GSTM3 (11746129_a_at) / Fold change /veh GSTM3 (11746129_a_at) / RFU IL23R (11737362_x_at) / Fold change /veh IL23R (11737362_x_at) / RFU TMEM51 (11727254_a_at) / Fold change /veh TMEM51 (11727254_a_at) / RFU PIWIL2 (11732686_x_at) / Fold change /veh PIWIL2 (11732686_x_at) / RFU ORM1 (11744905_x_at) / Fold change /veh ORM1 (11744905_x_at) / RFU CCDC152 (11743942_at) / Fold change /veh CCDC152 (11743942_at) / RFU ECM1 (11717891_a_at) / Fold change /veh ECM1 (11717891_a_at) / RFU IL23R (11748794_a_at) / Fold change /veh IL23R (11748794_a_at) / RFU TNFAIP8L3 (11732012_x_at) / Fold change /veh TNFAIP8L3 (11732012_x_at) / RFU MBOAT4 (11741988_at) / Fold change /veh MBOAT4 (11741988_at) / RFU 11764193_at / Fold change /veh 11764193_at / RFU TMEM53 (11763286_at) / Fold change /veh TMEM53 (11763286_at) / RFU MAGEB2 (11727129_at) / Fold change /veh MAGEB2 (11727129_at) / RFU TMEM200A (11744735_a_at) / Fold change /veh TMEM200A (11744735_a_at) / RFU CCDC152 (11751479_a_at) / Fold change /veh CCDC152 (11751479_a_at) / RFU FAM211A (11726209_a_at) / Fold change /veh FAM211A (11726209_a_at) / RFU RGS16 (11746705_a_at) / Fold change /veh RGS16 (11746705_a_at) / RFU VCAN (11755009_s_at) / Fold change /veh VCAN (11755009_s_at) / RFU RHOB (11743442_s_at) / Fold change /veh RHOB (11743442_s_at) / RFU RGS16 (11720943_a_at) / Fold change /veh RGS16 (11720943_a_at) / RFU RGS16 (11720944_at) / Fold change /veh RGS16 (11720944_at) / RFU, VPS4B / Fold change vs veh, VPS4B / RFU, CREB1 / Fold change vs veh, CREB1 / RFU, DNAJC13 / Fold change vs veh, DNAJC13 / RFU, GNAQ / Fold change vs veh, GNAQ / RFU, CDK5R1 / Fold change vs veh, CDK5R1 / RFU, ZRANB3 / Fold change vs veh, ZRANB3 / RFU, CUL4A / Fold change vs veh, CUL4A / RFU, CCNY / Fold change vs veh, CCNY / RFU, UFL1 / Fold change vs veh, UFL1 / RFU, COG3 / Fold change vs veh, COG3 / RFU, DIAPH2 / Fold change vs veh, DIAPH2 / RFU, SKA2 / Fold change vs veh, SKA2 / RFU, AFF3 / Fold change vs veh, AFF3 / RFU, LMF1 / Fold change vs veh, LMF1 / RFU, IPO11 / Fold change vs veh, IPO11 / RFU, DFFB / Fold change vs veh, DFFB / RFU, FOXP1 / Fold change vs veh, FOXP1 / RFU, CARD8 / Fold change vs veh, CARD8 / RFU, STRN3 / Fold change vs veh, STRN3 / RFU, ADK / Fold change vs veh, ADK / RFU, RASSF2 / Fold change vs veh, RASSF2 / RFU, WIPF1 / Fold change vs veh, WIPF1 / RFU, LARP1B / Fold change vs veh, LARP1B / RFU, RASA1 / Fold change vs veh, RASA1 / RFU, RB1 / Fold change vs veh, RB1 / RFU, PPFIA1 / Fold change vs veh, PPFIA1 / RFU, MAT2A / Fold change vs veh, MAT2A / RFU, CCT5 / Fold change vs veh, CCT5 / RFU, WDR92 / Fold change vs veh, WDR92 / RFU, CUX1 / Fold change vs veh, CUX1 / RFU, TTC7A / Fold change vs veh, TTC7A / RFU, TMEM135 / Fold change vs veh, TMEM135 / RFU, DEPTOR / Fold change vs veh, DEPTOR / RFU, CPM / Fold change vs veh, CPM / RFU, DNAJB6 / Fold change vs veh, DNAJB6 / RFU, CACNA2D3 / Fold change vs veh, CACNA2D3 / RFU, DTX4 / Fold change vs veh, DTX4 / RFU, TFCP2 / Fold change vs veh, TFCP2 / RFU, GMCL1 /// GMCL1P1 / Fold change vs veh, GMCL1 /// GMCL1P1 / RFU, AEBP2 / Fold change vs veh, AEBP2 / RFU, SNHG1 /// SNORD22 /// SNORD25 /// SNORD26 /// SNORD27 /// SNORD28 /// SNORD29 /// SNORD31 / Fold change vs veh, SNHG1 /// SNORD22 /// SNORD25 /// SNORD26 /// SNORD27 /// SNORD28 /// SNORD29 /// SNORD31 / Fold change (Aza/veh), C12orf56 (ProbeSet 11735607_a_at) / Fold change (ACY-1035/veh), C12orf56 (ProbeSet 11735607_a_at) / Fold change (Aza/veh), FGFR1OP (ProbeSet 11751329_s_at) / Fold change (ACY-1035/veh), FGFR1OP (ProbeSet 11751329_s_at) / Fold change (Aza/veh), VPS36 (ProbeSet 11739960_a_at) / Fold change (ACY-1035/veh), VPS36 (ProbeSet 11739960_a_at) / RFU SYPL1 (11715823_x_at) / Fold change /veh SYPL1 (11715823_x_at) / RFU IGFBP7 (11715501_s_at) / Fold change /veh IGFBP7 (11715501_s_at) / RFU REEP3 (11722064_at) / Fold change /veh REEP3 (11722064_at) / RFU IGLL1 (11728026_x_at) / Fold change /veh IGLL1 (11728026_x_at): dose or concentration left out as unconfirmed", "conditions": "MV-4-11 cells, 48 hours"}
{"smiles": "Nc1ncn([C@@H]2O[C@H](CO)[C@@H](O)[C@H]2O)c(=O)n1", "note": "[azacitidine]", "values": [{"measurement": "RFU SRD5A1 (11742802_a_at)", "value": 51.32, "unit": "RFU"}]}
